Ends that are not written are not given here. FAM = fluorescein label (FAM, fluorescein-labelled)

In assay [1] the test system is occluded arteries. Briefly: Dipping assay of occluded arteries from a human patient. The assay is classed as binding. The settings on record: occlusive peripheral vascular disease, after limb amputation.
Assay [2] has as its system human breast carcinoma. Description: Dipping of fresh human breast carcinoma samples in FAM-labelled peptide. The assay is classed as binding. As for the experimental part:
Fresh, untreated samples of human breast carcimoma were dipped, 1 hr post surgery, in 20 μM FAM-CSG for 1 hr, followed by 3×1.5 min washes with 1× PBS.
This absence of binding of PAM-ARA was confirmed using anti-fluorescein antibody (data not shown).

Assay [3] concerns fibrotic tissue. Description: Binding to liver tissue sections of mice fed choline deficient diet. Also on record: species or system mice (C57BL/6 strain). As for the experimental part:
Mice (C57BL/6 strain) were fed a choline deficient diet, for 4 weeks (early liver fibrosis), 16 weeks (advanced fibrosis-cirrhosis) or 28 weeks (advanced HCC), after which liver tissue was examined. Acetone-fixed fresh frozen 8 μm issue cross sections were incubated with either 1 μM FAM-CSG or 5 μM FAM-ARA for 30 min in 1×PBS buffer at room temperature, FAM-CSG or FAM-ARA binding were confirmed using anti-FITC-HRP antibody staining.

The subject of assay [4] is aorta containing plaque. Description: In vivo accumulation of FAM-CSG in aorta containing plaque. Further details: species or system mice. The following applies: 1 hr after i.v. injection of 100 μl 1 mM FAM-CSG.
Assay [5] has as its system tumour ECM. Briefly: Co-localisation of CSG with ECM markers in tumour tissue sections. The assay is classed as binding, mouse and human. Here is the method:
Following incubation of whole tissue (for mouse insulinoma and human breast cancer) or 8 μm tissue cross section, (for mouse and human HCC) with FAM-CSG peptide, tissue cross sections were co-stained with 0.3 μg in 100 μL of anti-nidogen-1 (Rat anti-monoclonal mouse nidogen-1, Millipore) or anti-collagen-1 (Rabbit polyclonal collagen 1, Abeam) markers of ECM, for 1 hr at room temperature. Stained sections were washed 3× with 1×TBS buffer. Tissue sections were re-incubated with donkey anti-Rat or Rabbit IgG (H+L) secondary antibody Alexa 594 (0.4 μg in 100 μL for 30 min. at room temperature), followed by 3×wash with 1×TBS buffer. Co-localisation of CSG with these ECM markers highlights the specificity of CSG binding to tumour ECM (FIG. 2). Co-localisation was not observed in normal healthy tissue.

The test system of assay [6] is plaques from the ApoE null mice. Description: Incubation of aorta with FAM-labelled peptide. The assay is classed as binding. The settings on record: 20 nmol/ml. Here is the method:
To determine whether CSG also recognises fibroatheroma, healthy aorta from wild type C57BL/6 mice and aorta from ApoE null mice were incubated with 20 nmol/ml fluorescein-labelled FAM-CSG or ARA control.

The subject of assay [7] is hepatocellular carcinoma or breast carcinoma. Briefly: FAM-CSG accumulation in tumours after tail vein injection. The assay is classed as in vivo, mice. The following applies: 100 μL of 1 mM i.v., tissue harvested 1 hr after injection. As for the experimental part:
Fluorescein-labelled (FAM)-CSG (CSGRRSSKC; SEQ ID NO:1) (100 μL of 1 mM stock made in sterile 1× PBS) was injected into the tail vein of tumour-bearing mice (hepatocellular carcinoma or breast carcinoma, in C3H and BALB/c strains, respectively). Tissue was harvested without perfusion 1 hr after injection and peptide accumulation observed under UV illumination. […] Homing was specific to tumours, with only clearance organs (intestines, kidneys) showing limited accumulation of FAM-CSG.

CSGRRSSKC: the “binding to human occluded arteries and plaques” value in assay [1] is “specific binding of CSG to the occluded arteries and specific accumulation of CSG in plaques”. The “effect of preincubation with unlabeled peptide on FAM-CSG accumulation” value in assay [2] (excess 1 mg unlabeled CSG) was “abolished the FAM-CSG specific penetration and accumulation in tumours”. In addition, the “binding to fibrotic liver tissue” value in assay [3] (4, 16 or 28 weeks choline deficient diet, 1 μM FAM-CSG, 30 min) is on record as “effectively binds fibrotic tissue at all stages”. Moreover, the “co-localisation of in vivo accumulation with ECM marker” value in assay [4] was “co-localises with the ECM marker laminin”. Also, the “co-localisation with ECM markers in tumours” value in assay [5] (murine insulinoma and HCC, human breast carcinoma and HCC) is “co-localises with two known ECM markers, collagen-1 and nidogen-1”. The “co-localisation with ECM markers in normal healthy tissue” value in assay [5] (normal healthy tissue) is reported as “not observed”.

Turning to “FAM-ARA: control fluorescein-labelled (FAM)-ARA peptide, ARALPSQRSR (SEQ ID NO:5) ({FAM}-ARALPSQRSR) [reference compound]”, in assay [2] (control peptide), the “binding to human breast carcinoma tissue” value is on record as “showed no binding to the human breast carcinoma tissue”.

“FAM-CSG: Fluorescein-labelled (FAM)-CSG (CSGRRSSKC; SEQ ID NO:1) ({FAM}-CSGRRSSKC; cysteine pairing not given here)”: in assay [6], the “binding to aortic plaques” value is “specifically bound to, and accumulated in, plaques”. In addition, the “binding to human breast carcinoma tissue” value in assay [2] (20 μM for 1 hr) is “bound specifically to the tumour tissue and not to normal or marginal tissue”. In addition, the “co-localisation with ECM marker nidogen-1 in fibrotic liver” value in assay [3] (1 μM, 30 min) was “co-localised with staining for the ECM marker nidogen-1”. The “binding to normal liver” value in assay [3] (mice fed normal chow diet) is “limited binding”. The “peptide accumulation in tumours under UV illumination” value in assay [7] was “accumulates in both tumour types”.

For the origin of these results see patent US20190022239A1, “NOVEL BIOMOLECULE CONJUGATES AND USES THEREFOR” (The University of Western Australia, priority 2016, published 2019).
